Where a SMILES comes first, the peptide text is derived from it. Bridges are numbered along the chain shown (N, C = ends). [ ]: non-standard residue; d: D form. The star is where a group is joined. Bip = N[C@@H](Cc1ccc(-c2ccccc2)cc1)C(=O)O; d(aIle) = CC[C@H](C)[C@@H](N)C(=O)O; d(aThr) = C[C@@H](O)[C@@H](N)C(=O)O; Hexanoyl(5-Me) = CC(C)CCCC(=O)*; Orn = NCCC[C@H](N)C(=O)O; Dhb = C/C=C(\N)C(=O)O
Experiments:
Assay type in all cases: cell-based, human
K-562 = test: SRB colorimetric assay of cell growth and viability, K-562; settings: K-562, 48 hours exposure; for CC50: read-out: LC50 K-562
IGROV-1 = test: SRB colorimetric assay of cell growth and viability, IGROV-1; settings: IGROV; 48 hours exposure
PANC-1 = test: SRB colorimetric assay of cell growth and viability, PANC-1; settings: PANC-1, 48 hours exposure; for CC50: read-out: LC50 PANC-1
DU-145 = test: SRB colorimetric assay of cell growth and viability, DU-145; settings: DU-145; 48 hours exposure
HeLa = test: SRB colorimetric assay of cell growth and viability, HeLa; settings: HELA, 48 hours exposure; for CC50: read-out: LC50 HELA
LoVo = test: SRB colorimetric assay of cell growth and viability, LoVo; settings: LOVO, 48 hours exposure; for CC50: read-out: LC50 LOVO
SK-BR-3 = test: SRB colorimetric assay of cell growth and viability, SK-BR-3; settings: SK-BR-3; 48 hours exposure
Source text: The finality of this assay is to interrupt the growth of a “in vitro” tumor cell culture by means a continued exhibition of the cells to the sample to be testing.
This form of the assay employs 96 well cell culture microplates of 9 mm diameter (Faircloth, 1988; Mosmann, 1983). Most of the cell lines are obtained from American Type Culture Collection (ATCC) derived from different human cancer types.
Cells are maintained in RPMI 1640 10% FBS, supplemented with 0.1 g/l penicillin and 0.1 g/l streptomycin sulfate and then incubated at 37° C., 5% CO2 and 98% humidity. For the experiments, cells were harvested from subconfluent cultures using trypsin and resuspended in fresh medium before plating.
Cells are seeded in 96 well microtiter plates, at 5×10^3 cells per well in aliquots of 195 μL medium, and they are allowed to attach to the plate surface by growing in drug free medium for 18 hours. Afterward, samples are added in aliquots of 5 μL in a ranging from 10 to 10^−8 μg/mL, dissolved in DMSO:EtOH:PBS (0.5:0.5:99). After 48 hours exposure, the antitumor effect are measured by the SRB methodology: cells are fixed by adding 50 μL of cold 50% (wt/vol) trichloroacetic acid (TCA) and incubating for 60 minutes at 4° C. Plates are washed with deionized water and dried. One hundred μL of SRB solution (0.4% wt/vol in 1% acetic acid) is added to each microtiter well and incubated for 10 minutes at room temperature. Unbound SRB is removed by washing with 1% acetic acid. Plates are air dried and bound stain is solubilized with Tris buffer. Optical densities are read on a automated spectrophotometric plate reader at a single wavelength of 490 nm.
The values for mean+/− SD of data from triplicate wells are calculated. Some parameters for cellular responses can be calculated: GI=growth inhibition, TGI=total growth inhibition (cytostatic effect) and LC=cell killing (cytotoxic effect).

HeLa-APL = test: SRB colorimetric assay of cell growth and viability, HeLa-APL; settings: HELA-APL, 48 hours exposure; for CC50: read-out: LC50 HELA-APL
IGROV-ET = test: SRB colorimetric assay of cell growth and viability, IGROV-ET; settings: IGROV-ET, 48 hours exposure; for CC50: read-out: LC50 IGROV-ET
SK-MEL-28 = test: SRB colorimetric assay of cell growth and viability, SK-MEL-28; settings: MEL-28, 48 hours exposure; for CC50: read-out: LC50 MEL-28
HT-29 = test: SRB colorimetric assay of cell growth and viability, HT-29; settings: HT-29, 48 hours exposure; for GI50: read-out: GI50 HT-29; for CC50: read-out: LC50 HT-29
A-549 = test: SRB colorimetric assay of cell growth and viability, A-549; settings: A-549, 48 hours exposure; for GI50: read-out: GI50 A-549; for CC50: read-out: LC50 A-549
LoVo-Dox = test: SRB colorimetric assay of cell growth and viability, LoVo-Dox; settings: LOVO-DOX, 48 hours exposure; for CC50: read-out: LC50 LOVO-DOX
Procedure, shortened: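 First, 5×10^3 cells per well attach for 18 hours in RPMI 1640 with 10% FBS at 37° C and 5% CO2. Next, samples spanning 10 to 10^−8 μg/mL are added for 48 hours. Finally, cells are fixed with TCA, stained with SRB for 10 minutes and read at 490 nm.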

C/C=C1\NC(=O)[C@H](Cc2ccc(-c3ccccc3)cc2)NC(=O)[C@@H](C(C)C)NC(=O)[C@@H]([C@@H](C)CC)NC(=O)[C@H](NC(=O)[C@H](NC(=O)[C@H](CCCN)NC(=O)[C@H]2CCCN2C(=O)[C@H](NC(=O)[C@@H](NC(=O)[C@@H](NC(=O)[C@H](NC(=O)CCCC(C)C)C(C)C)[C@@H](C)O)C(C)C)C(C)C)[C@@H](C)CC)[C@@H](C)OC(=O)[C@H](C(C)C)NC1=O [Compound 86, [Bip^3]-KF] ({Hexanoyl(5-Me)}-[dV]TV[dV][dP][Orn][d(aIle)][d(aThr)][d(aIle)][dV][Bip][Dhb]V; ester 8-C)
GI50 (K-562): 1.1 µM | TGI K-562 (K-562): 2.32E−06 Molar | CC50 (K-562): 4.87 µM | GI50 (IGROV-1): 0.181 µM | LC50 (concentration causing 50% net cell killing) (IGROV-1): ≥ 6.43 µM | TGI IGROV (IGROV-1): 5.23E−07 Molar | GI50 (PANC-1): 0.984 µM | TGI PANC-1 (PANC-1): 2.17E−06 Molar | CC50 (PANC-1): 4.77 µM | GI50 (DU-145): 0.124 µM | LC50 (concentration causing 50% net cell kill) (DU-145): 0.527 µM | TGI DU-145 (DU-145): 2.56E−07 Molar | GI50 (HeLa): 0.177 µM | TGI HELA (HeLa): 8.17E−07 Molar | CC50 (HeLa): 3.9 µM | GI50 (LoVo): 0.0637 µM | TGI LOVO (LoVo): 2.89E−07 Molar | CC50 (LoVo): 4.68 µM | GI50 (SK-BR-3): 0.0289 µM | LC50 (SK-BR-3): 5.07 µM | TGI SK-BR-3 (SK-BR-3): 1.79E−07 Molar | GI50 (HeLa-APL): 0.424 µM | TGI HELA-APL (HeLa-APL): 1.65E−06 Molar | CC50 (HeLa-APL): 6.07 µM | GI50 (IGROV-ET): 0.15 µM | TGI IGROV-ET (IGROV-ET): 1.00E−06 Molar | CC50 (IGROV-ET): ≥ 6.43 µM | GI50 (SK-MEL-28): 0.183 µM | TGI MEL-28 (SK-MEL-28): 4.11E−07 Molar | CC50 (SK-MEL-28): 2.48 µM | TGI HT-29 (HT-29): 3.73E−07 Molar | GI50 (HT-29): 0.129 µM | CC50 (HT-29): 5.07 µM | TGI A-549 (A-549): 2.87E−07 Molar | GI50 (A-549): 0.125 µM | CC50 (A-549): 0.81 µM | GI50 (LoVo-Dox): 0.0733 µM | TGI LOVO-DOX (LoVo-Dox): 2.69E−07 Molar | CC50 (LoVo-Dox): ≥ 6.43 µM

C/C=C1\NC(=O)[C@H](Cc2cccc(Cl)c2)NC(=O)[C@@H](C(C)C)NC(=O)[C@@H]([C@@H](C)CC)NC(=O)[C@H](NC(=O)[C@H](NC(=O)[C@H](CCCN)NC(=O)[C@H]2CCCN2C(=O)[C@H](NC(=O)[C@@H](NC(=O)[C@@H](NC(=O)[C@H](NC(=O)CCCC(C)C)C(C)C)[C@@H](C)O)C(C)C)C(C)C)[C@@H](C)CC)[C@@H](C)OC(=O)[C@H](C(C)C)NC1=O [Compound 82, [Phe(3-Cl)^3]-KF]
GI50 (K-562): 0.658 µM | TGI K-562 (K-562): 1.02E−06 Molar | CC50 (K-562): 1.59 µM | GI50 (IGROV-1): 0.0695 µM | LC50 (concentration causing 50% net cell killing) (IGROV-1): 0.182 µM | TGI IGROV (IGROV-1): 1.13E−07 Molar | GI50 (PANC-1): 0.965 µM | TGI PANC-1 (PANC-1): 1.84E−06 Molar | CC50 (PANC-1): 1.84 µM | GI50 (DU-145): 0.209 µM | LC50 (concentration causing 50% net cell kill) (DU-145): 0.553 µM | TGI DU-145 (DU-145): 3.40E−07 Molar | GI50 (HeLa): 0.127 µM | TGI HELA (HeLa): 2.75E−07 Molar | CC50 (HeLa): 0.521 µM | GI50 (LoVo): 0.0406 µM | TGI LOVO (LoVo): 8.73E−08 Molar | CC50 (LoVo): 0.18 µM | GI50 (SK-BR-3): 0.0589 µM | LC50 (SK-BR-3): 0.184 µM | TGI SK-BR-3 (SK-BR-3): 1.04E−07 Molar | GI50 (HeLa-APL): 0.192 µM | TGI HELA-APL (HeLa-APL): 3.25E−07 Molar | CC50 (HeLa-APL): 0.551 µM | GI50 (IGROV-ET): 0.11 µM | TGI IGROV-ET (IGROV-ET): 2.20E−07 Molar | CC50 (IGROV-ET): 0.576 µM | GI50 (SK-MEL-28): 0.297 µM | TGI MEL-28 (SK-MEL-28): 4.41E−07 Molar | CC50 (SK-MEL-28): 0.935 µM | TGI HT-29 (HT-29): 1.19E−07 Molar | GI50 (HT-29): 0.0775 µM | CC50 (HT-29): 0.187 µM | TGI A-549 (A-549): 6.03E−07 Molar | GI50 (A-549): 0.291 µM | CC50 (A-549): 1.49 µM | GI50 (LoVo-Dox): 0.0453 µM | TGI LOVO-DOX (LoVo-Dox): 9.10E−08 Molar | CC50 (LoVo-Dox): 0.892 µM

Reference: patent US20070117743A1, “New antitumoral compounds” (priority 2003, published 2007)
